Data as given in PubChem BioAssay AID1918953 (Molecular Pharmacology Branch, DTP, NCI, 2023).
Several values for one entry are separate records, joined by “and”; a condition that tells them apart may be missing. Equal values may be shown once.

Test system: MDA-MB-231 complex spheroid viability
Assay: Anticancer human tumor MDA-MB-231/ATCC cell line growth inhibition;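 also: drug exposure lasted 7 days starting on day 3 of spheroid growth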
Conditions: for viability, T/C: stronger effect = lower value
Procedure, shortened: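 Complex spheroids of tumor cells with HUVEC and human MSCs, exposed to iadademstat combined with other agents. Each agent tested in half-log steps from near clinical Cmax (else 10 microM top), DMSO ≤0.25%.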

[1] = curve of first compound, second compound 0.1 µM
[2] = curve of first compound, second compound 0.316 µM
[3] = curve of first compound, second compound 1 µM
[4] = curve of first compound, second compound 3.16 µM
[5] = curve of first compound, second compound 10 µM
[6] = second compound 0.1 µM, first compound 0.00949 µM
[7] = second compound 0.1 µM, first compound 0.03 µM
[8] = second compound 0.1 µM, first compound 0.0949 µM
[9] = second compound 0.1 µM, first compound 0.3 µM
[10] = second compound 0.1 µM, first compound 0.949 µM
[11] = second compound 0.1 µM, first compound 3 µM
[12] = second compound 0.316 µM, first compound 0.00949 µM
[13] = second compound 0.316 µM, first compound 0.03 µM
[14] = second compound 0.316 µM, first compound 0.0949 µM
[15] = second compound 0.316 µM, first compound 0.3 µM
[16] = second compound 0.316 µM, first compound 0.949 µM
[17] = second compound 0.316 µM, first compound 3 µM
[18] = second compound 1 µM, first compound 0.00949 µM
[19] = second compound 1 µM, first compound 0.03 µM
[20] = second compound 1 µM, first compound 0.0949 µM
[21] = second compound 1 µM, first compound 0.3 µM
[22] = second compound 1 µM, first compound 0.949 µM
[23] = second compound 1 µM, first compound 3 µM
[24] = second compound 3.16 µM, first compound 0.00949 µM
[25] = second compound 3.16 µM, first compound 0.03 µM
[26] = second compound 3.16 µM, first compound 0.0949 µM
[27] = second compound 3.16 µM, first compound 0.3 µM
[28] = second compound 3.16 µM, first compound 0.949 µM
[29] = second compound 3.16 µM, first compound 3 µM
[30] = second compound 10 µM, first compound 0.00949 µM
[31] = second compound 10 µM, first compound 0.03 µM
[32] = second compound 10 µM, first compound 0.0949 µM
[33] = second compound 10 µM, first compound 0.3 µM
[34] = second compound 10 µM, first compound 0.949 µM
[35] = second compound 10 µM, first compound 3 µM
[36] = second compound 0.1 µM, first compound 0.00316 µM
[37] = second compound 0.1 µM, first compound 0.01 µM
[38] = second compound 0.1 µM, first compound 0.0316 µM
[39] = second compound 0.1 µM, first compound 0.1 µM
[40] = second compound 0.316 µM, first compound 0.00316 µM
[41] = second compound 0.316 µM, first compound 0.01 µM
[42] = second compound 0.316 µM, first compound 0.0316 µM
[43] = second compound 0.316 µM, first compound 0.1 µM
[44] = second compound 1 µM, first compound 0.00316 µM
[45] = second compound 1 µM, first compound 0.01 µM
[46] = second compound 1 µM, first compound 0.0316 µM
[47] = second compound 1 µM, first compound 0.1 µM
[48] = second compound 3.16 µM, first compound 0.00316 µM
[49] = second compound 3.16 µM, first compound 0.01 µM
[50] = second compound 3.16 µM, first compound 0.0316 µM
[51] = second compound 3.16 µM, first compound 0.1 µM
[52] = second compound 10 µM, first compound 0.00316 µM
[53] = second compound 10 µM, first compound 0.01 µM
[54] = second compound 10 µM, first compound 0.0316 µM
[55] = second compound 10 µM, first compound 0.1 µM

CC[C@@]1(O)C(=O)OCc2c1cc1n(c2=O)Cc2cc3c(CN(C)C)c(O)ccc3nc2-1
viability, T/C (compound 0.000316 µM): 89.7% and 88.6%
viability, T/C (compound 0.001 µM): 64.9% and 65.5%
viability, T/C (compound 0.00316 µM): 39.1% and 39.5%
viability, T/C (compound 0.01 µM): 25.3% and 25.9%
viability, T/C (compound 0.0316 µM): 17.1% and 22.8%
viability, T/C (compound 0.1 µM): 10.3% and 16%
IC50 (curve of compound): 1.99 nM and 2.01 nM

O=C(C=Cc1cccc(S(=O)(=O)Nc2ccccc2)c1)NO + NC1CC1c1ccc(-c2cccc(O)c2)cc1
IC50 [1]: 20.3 nM
IC50 [2]: 13.2 nM
IC50 [3]: 11.4 nM
IC50 [4]: < 9.49 nM
IC50 [5]: < 9.49 nM
viability, T/C [6]: 61.6%
viability, T/C [7]: 44%
viability, T/C [8]: 31.3%
viability, T/C [9]: 19.1%
viability, T/C [10]: 1.09%
viability, T/C [11]: 74.2%
viability, T/C [12]: 55.9%
viability, T/C [13]: 35.5%
viability, T/C [14]: 24.9%
viability, T/C [15]: 17.7%
viability, T/C [16]: 0.33%
viability, T/C [17]: 56.4%
viability, T/C [18]: 52.5%
viability, T/C [19]: 37.2%
viability, T/C [20]: 20.9%
viability, T/C [21]: 19.7%
viability, T/C [22]: 0.58%
viability, T/C [23]: 56.9%
viability, T/C [24]: 47.9%
viability, T/C [25]: 31.1%
viability, T/C [26]: 18.4%
viability, T/C [27]: 15.8%
viability, T/C [28]: 0.63%
viability, T/C [29]: 58.4%
viability, T/C [30]: 31.4%
viability, T/C [31]: 18.4%
viability, T/C [32]: 12.8%
viability, T/C [33]: 5.16%
viability, T/C [34]: 0.34%
viability, T/C [35]: 37.3%

CC1COCCN1c1cc(-c2ccnn2C)c2ccnc(-c3ccn[nH]3)c2n1 (stereo unspecified) + NC1CC1c1ccc(-c2cccc(O)c2)cc1
IC50 [1]: < 3.16 nM
IC50 [2]: < 3.16 nM
IC50 [3]: < 3.16 nM
IC50 [4]: < 3.16 nM
IC50 [5]: < 3.16 nM
viability, T/C [36]: 38.1%
viability, T/C [37]: 32%
viability, T/C [38]: 20.5%
viability, T/C [39]: 16.4%
viability, T/C (second compound 0.1 µM, first compound 0.316 µM): 15.8%
viability, T/C (second compound 0.1 µM, first compound 1 µM): 21.4%
viability, T/C [40]: 32.1%
viability, T/C [41]: 28.7%
viability, T/C [42]: 20.7%
viability, T/C [43]: 16.6%
viability, T/C (second compound 0.316 µM, first compound 0.316 µM): 15.8%
viability, T/C (second compound 0.316 µM, first compound 1 µM): 22.5%
viability, T/C [44]: 33.5%
viability, T/C [45]: 30.8%
viability, T/C [46]: 20.9%
viability, T/C [47]: 15.3%
viability, T/C (second compound 1 µM, first compound 0.316 µM): 14.3%
viability, T/C (second compound 1 µM, first compound 1 µM): 24%
viability, T/C [48]: 33.4%
viability, T/C [49]: 27.9%
viability, T/C [50]: 19.7%
viability, T/C [51]: 16.9%
viability, T/C (second compound 3.16 µM, first compound 0.316 µM): 15.2%
viability, T/C (second compound 3.16 µM, first compound 1 µM): 22%
viability, T/C [52]: 25.7%
viability, T/C [53]: 20.7%
viability, T/C [54]: 18.1%
viability, T/C [55]: 16.2%
viability, T/C (second compound 10 µM, first compound 0.316 µM): 15%
viability, T/C (second compound 10 µM, first compound 1 µM): 20.5%

O=C(C=Cn1cnc(-c2cc(C(F)(F)F)cc(C(F)(F)F)c2)n1)NNc1cnccn1
viability, T/C (compound 0.00316 µM): 61.8% and 35.1%
viability, T/C (compound 0.01 µM): 32.6% and 31.3%
viability, T/C (compound 0.0316 µM): 11.5% and 11.8%
viability, T/C (compound 0.1 µM): 9.25% and 3.52%
viability, T/C (compound 0.316 µM): 10.8% and 3.53%
viability, T/C (compound 1 µM): 5.27% and 4.37%
IC50 (curve of compound): 5.04 nM and < 3.16 nM

Cn1ncnc1C1c2n[nH]c(=O)c3cc(F)cc(c23)NC1c1ccc(F)cc1 (stereo unspecified) + NC1CC1c1ccc(-c2cccc(O)c2)cc1
IC50 [1]: > 100 nM
IC50 [2]: 49 nM
IC50 [3]: 48.1 nM
IC50 [4]: 51.5 nM
IC50 [5]: 0.479 nM
viability, T/C (second compound 0.1 µM, first compound 0.000316 µM): 86.3%
viability, T/C (second compound 0.1 µM, first compound 0.001 µM): 87.6%
viability, T/C [36]: 74.2%
viability, T/C [37]: 77%
viability, T/C [38]: 62.4%
viability, T/C [39]: 60.4%
viability, T/C (second compound 0.316 µM, first compound 0.000316 µM): 64.4%
viability, T/C (second compound 0.316 µM, first compound 0.001 µM): 61%
viability, T/C [40]: 60.6%
viability, T/C [41]: 57.1%
viability, T/C [42]: 56.2%
viability, T/C [43]: 42.7%
viability, T/C (second compound 1 µM, first compound 0.000316 µM): 62.4%
viability, T/C (second compound 1 µM, first compound 0.001 µM): 61.5%
viability, T/C [44]: 57.2%
viability, T/C [45]: 51.2%
viability, T/C [46]: 53.5%
viability, T/C [47]: 47.4%
viability, T/C (second compound 3.16 µM, first compound 0.000316 µM): 66.6%
viability, T/C (second compound 3.16 µM, first compound 0.001 µM): 69.4%
viability, T/C [48]: 67.4%
viability, T/C [49]: 55.3%
viability, T/C [50]: 49.2%
viability, T/C [51]: 48.7%
viability, T/C (second compound 10 µM, first compound 0.000316 µM): 51.9%
viability, T/C (second compound 10 µM, first compound 0.001 µM): 46.5%
viability, T/C [52]: 43%
viability, T/C [53]: 42.5%
viability, T/C [54]: 33.1%
viability, T/C [55]: 32.2%

CC(C)c1c(-c2ccccc2)nc2c(C#N)c[nH]n2c1=O
viability, T/C (compound 0.0316 µM): 101% and 102%
viability, T/C (compound 0.1 µM): 94.7% and 104%
viability, T/C (compound 0.316 µM): 97.9% and 117%
viability, T/C (compound 1 µM): 106% and 112%
viability, T/C (compound 3.16 µM): 108% and 121%
viability, T/C (compound 10 µM): 102% and 113%
IC50 (curve of compound): > 10000 nM

NS(=O)(=O)OCC1CC(n2ccc3c(NC4CCc5ccccc54)ncnc32)CC1O (stereo unspecified) + NC1CC1c1ccc(-c2cccc(O)c2)cc1
IC50 [1]: 82.3 nM
IC50 [2]: 75.3 nM
IC50 [3]: 82 nM
IC50 [4]: 70.6 nM
IC50 [5]: 36.4 nM
viability, T/C [6]: 128%
viability, T/C [7]: 94.3%
viability, T/C [8]: 44.1%
viability, T/C [9]: 28.6%
viability, T/C [10]: 28.8%
viability, T/C [11]: 27.9%
viability, T/C [12]: 118%
viability, T/C [13]: 93.5%
viability, T/C [14]: 39.1%
viability, T/C [15]: 27.2%
viability, T/C [16]: 23.9%
viability, T/C [17]: 27.8%
viability, T/C [18]: 114%
viability, T/C [19]: 90.1%
viability, T/C [20]: 44.2%
viability, T/C [21]: 29.3%
viability, T/C [22]: 25.6%
viability, T/C [23]: 28.4%
viability, T/C [24]: 116%
viability, T/C [25]: 78.9%
viability, T/C [26]: 40.8%
viability, T/C [27]: 27%
viability, T/C [28]: 30.4%
viability, T/C [29]: 28.3%
viability, T/C [30]: 68.6%
viability, T/C [31]: 53.4%
viability, T/C [32]: 34.8%
viability, T/C [33]: 27%
viability, T/C [34]: 26.3%
viability, T/C [35]: 20.2%
